In ChEMBL document CHEMBL5036365, “A Molecular Networking Based Discovery of Diketopiperazine Heterodimers and Aspergillicins from Aspergillus caelatus” (J Nat Prod, 2022):
The source made the active and inactive calls.

What was measured:
HepG2 [1] = assay: Cytotoxicity against human HepG2 cells at 40 ug/ml treated for 72 hrs by MTT assay; type: functional, cell-based; settings: dose 40.0 µg/ml
Botrytis cinerea [2] = assay: Antifungal activity against Botrytis cinerea B05.10 at 160 ug/ml incubated for 24 hrs by agar based assay; type: functional, organism-based; settings: dose 160.0 µg/ml
Fusarium graminearum [3] = assay: Antifungal activity against Fusarium graminearum BRFM 1982 at 160 ug/ml incubated for 24 hrs by agar based assay; type: functional, organism-based; settings: dose 160.0 µg/ml
Pyricularia grisea [4] = assay: Antifungal activity against Magnaporthe grisea CF-105765 at 160 ug/ml incubated for 24 hrs by agar based assay; type: functional, organism-based; settings: dose 160.0 µg/ml
HepG2 [5] = assay: Cytotoxicity against human HepG2 cells at 25 ug/ml treated for 72 hrs by MTT assay; type: functional, cell-based; settings: dose 25.0 µg/ml
Botrytis cinerea [6] = assay: Antifungal activity against Botrytis cinerea B05.10 at 100 ug/ml incubated for 24 hrs by agar based assay; type: functional, organism-based; settings: dose 100.0 µg/ml
Fusarium graminearum [7] = assay: Antifungal activity against Fusarium graminearum BRFM 1982 at 100 ug/ml incubated for 24 hrs by agar based assay; type: functional, organism-based; settings: dose 100.0 µg/ml
Pyricularia grisea [8] = assay: Antifungal activity against Magnaporthe grisea CF-105765 at 100 ug/ml incubated for 24 hrs by agar based assay; type: functional, organism-based; settings: dose 100.0 µg/ml
HepG2 [9] = assay: Cytotoxicity against human HepG2 cells at 12.5 ug/ml treated for 72 hrs by MTT assay; type: functional, cell-based; settings: dose 12.5 µg/ml
Botrytis cinerea [10] = assay: Antifungal activity against Botrytis cinerea B05.10 at 50 ug/ml incubated for 24 hrs by agar based assay; type: functional, organism-based; settings: dose 50.0 µg/ml
Fusarium graminearum [11] = assay: Antifungal activity against Fusarium graminearum BRFM 1982 at 50 ug/ml incubated for 24 hrs by agar based assay; type: functional, organism-based; settings: dose 50.0 µg/ml
Pyricularia grisea [12] = assay: Antifungal activity against Magnaporthe grisea CF-105765 at 50 ug/ml incubated for 24 hrs by agar based assay; type: functional, organism-based; settings: dose 50.0 µg/ml
HepG2 [13] = assay: Cytotoxicity against human HepG2 cells at 20 ug/ml treated for 72 hrs by MTT assay; type: functional, cell-based; settings: dose 20.0 µg/ml
Botrytis cinerea [14] = assay: Antifungal activity against Botrytis cinerea B05.10 at 80 ug/ml incubated for 24 hrs by agar based assay; type: functional, organism-based; settings: dose 80.0 µg/ml
Fusarium graminearum [15] = assay: Antifungal activity against Fusarium graminearum BRFM 1982 at 80 ug/ml incubated for 24 hrs by agar based assay; type: functional, organism-based; settings: dose 80.0 µg/ml
Pyricularia grisea [16] = assay: Antifungal activity against Magnaporthe grisea CF-105765 at 80 ug/ml incubated for 24 hrs by agar based assay; type: functional, organism-based; settings: dose 80.0 µg/ml

Measured: Activity

CN1C(=O)[C@H](Cc2c[nH]c3ccc([C@]45C[C@H]6C(=O)N(C)[C@H](Cc7ccccc7)C(=O)N6[C@H]4Nc4ccccc45)cc23)NC(=O)[C@H]1Cc1ccccc1
inactive: HepG2 [1] | Botrytis cinerea [2] | Fusarium graminearum [3] | Pyricularia grisea [4]

CC[C@H](C)[C@H]1NC(=O)[C@@H](NC(C)=O)[C@@H](C)OC(=O)[C@H](C(C)C)NC(=O)[C@H](Cc2ccc(OC)cc2)N(C)C(=O)[C@@H]2CCCN2C(=O)[C@@H]2CCCN2C1=O
inactive: HepG2 [1] | Botrytis cinerea [2] | Fusarium graminearum [3] | Pyricularia grisea [4]

CN1C(=O)[C@H](Cc2cn([C@@]34C[C@H]5C(=O)N(C)[C@H](Cc6ccccc6)C(=O)N5[C@@H]3Nc3ccccc34)c3ccccc23)NC(=O)[C@H]1Cc1ccccc1
inactive: HepG2 [5] | Botrytis cinerea [6] | Fusarium graminearum [7] | Pyricularia grisea [8]

CN1C(=O)[C@H](Cc2c[nH]c3cc([C@@]45C[C@H]6C(=O)N(C)[C@H](Cc7ccccc7)C(=O)N6[C@@H]4N(C=O)c4ccccc45)ccc23)NC(=O)[C@H]1Cc1ccccc1
inactive: HepG2 [1] | Botrytis cinerea [2] | Fusarium graminearum [3] | Pyricularia grisea [4]

CN1C(=O)[C@H](Cc2cn([C@@]34C[C@H]5C(=O)N(C)[C@H](Cc6ccccc6)C(=O)N5[C@@H]3N(C=O)c3ccccc34)c3ccccc23)NC(=O)[C@H]1Cc1ccccc1
inactive: HepG2 [1] | Botrytis cinerea [2] | Fusarium graminearum [3] | Pyricularia grisea [4]

CN1C(=O)[C@H](Cc2c[nH]c3cc([C@@]45C[C@H]6C(=O)N(C)[C@H](Cc7ccccc7)C(=O)N6[C@@H]4Nc4ccccc45)ccc23)NC(=O)[C@H]1Cc1ccccc1
inactive: HepG2 [9] | Botrytis cinerea [10] | Fusarium graminearum [11] | Pyricularia grisea [12]

CC[C@H](C)[C@H]1NC(=O)[C@@H](NC(C)=O)[C@@H](C)OC(=O)[C@H](C(C)C)NC(=O)[C@H](Cc2ccccc2)N(C)C(=O)[C@@H]2CCCN2C(=O)[C@@H]2CCCN2C1=O
inactive: HepG2 [13] | Botrytis cinerea [14] | Fusarium graminearum [15] | Pyricularia grisea [16]

COc1ccc(C[C@H]2C(=O)N[C@@H](C(C)C)C(=O)O[C@H](C)[C@H](NC(C)=O)C(=O)N[C@H](C(C)C)C(=O)N3CCC[C@H]3C(=O)N3CCC[C@H]3C(=O)N2C)cc1
inactive: HepG2 [1] | Botrytis cinerea [2] | Fusarium graminearum [3] | Pyricularia grisea [4]
